Test results as given in US20240424152A1, “AGENTS, COMPOSITIONS, AND METHODS FOR CANCER DETECTION” (The Johns Hopkins University, priority 2021, published 2024).
Entries after “also recorded” stand apart in the source; their conditions may differ. No end group written: not given here. *: point of attachment. NOTA = O=C(O)CN1CCN(CC(=O)O)CCN(CC(=O)*)CC1

What was measured:
[1] = tested on: human triple negative breast cancer cell line, MDA-MB-231; test: Cellular uptake of 18F-labeled peptide with blocking by unlabeled peptide; assay type: cell-based; conditions: MDA-MB-231 cells, 74 KBq 18F-labeled peptide, 37° C., blocking with 10-fold non-radioactive peptide; FIG. 1
Method: Prepared peptides were first analyzed in vitro using the human triple negative breast cancer cell line, MDA-MB-231. In brief, cells were detached using non-enzymatic buffer and 0.5 million cells per tube will be incubated with 74 KBq (2 μCi) of ^18F-labeled peptide in 100 μL phosphate-buffered saline (PBS) at 37° C. Experiments were done in triplicate and repeated three times to ensure reproducibility. Blocking was carried out using a 10-fold molar equivalence of the corresponding non-radioactive peptide analogue. The integrity of the radiolabeled compounds and their extent of decomposition was analyzed by RP-HPLC.

MDA-MB-231 tumors = test: In vivo PET imaging in mice xenografted with MDA-MB-231 breast tumors; conditions: NOG mice, MDA-MB-231 xenograft, intravenous, 30 min post tracer injection; FIG. 2
Method: All animal studies were carried out per regulations set forth and approved by the Johns Hopkins Animal Care and Use Committee at the Johns Hopkins Molecular Imaging Service Center. Female, 6-8 weeks old, immunodeficient (NOG) mice were inoculated with MDA-MB-231 (2 million) cells in 100 μL of Hank's balanced salt solution in the top mammary fat pad. Tumors averaging 200-300 mm^3 (typically 14 days after inoculation) were used for in vivo imaging and ex vivo biodistribution studies.
For PET imaging, mice were intravenously injected with 9-10 MBq (240-270 μCi) of the radiolabeled peptide in 200 μL of saline. Whole body PET imaging (2 beds; 15 min per bed) was carried out using a SEDCAL SuperArgus small animal PET/CT scanner 30 min post tracer injection. Following PET image acquisition, a CT scan (512 projections) was obtained on the same system for anatomical co-registration. PET data were reconstructed using the 3-dimensional ordered-subsets expectation maximization (3D-OSEM) algorithm and corrected for dead time and radioactive decay. Final data visualization and image generation was carried out using the Amira (FEI) software. Quantitative in vivo image analysis was done in AMIDE 1.0.5 (SourceForge) using ellipsoid region-of-interest volume integrations. Percentage of injected dose per cubic centimeter of tissue (% ID/cc) was calculated based on an external calibration factor obtained from a known quantity of radioactivity.

Row | Substance | cellular uptake [1] | accumulation in breast tumors (PET) (MDA-MB-231 tumors) | tumor uptake on PET compared to Pep61 (MDA-MB-231 tumors)
1 | A-D-K-P-D-M-G-E-I-A-S-F-D-K(NOTA) (ADKPDMGEIASFDK(NOTA); also: 18F label) [Pep62, tested 18F-labeled] | taken up by MDA-MB-231 cells in a specific manner | clear accumulation in breast tumors; also recorded: Accumulation and visualization of both peptides in breast tumors | higher and more uniform uptake compared to Pep61
2 | A-D-K(NOTA)-P-D-M-G-E-I-A-S-F-D-K (ADK(NOTA)PDMGEIASFDK; also: 18F label) [Pep61, tested 18F-labeled] | taken up by MDA-MB-231 cells in a specific manner | clear accumulation in breast tumors; also recorded: Accumulation and visualization of both peptides in breast tumors | –
